Earlier results as cited in patent US8226992B1, “Composition and method of preventing and treating redox diseases” (priority 2009, dated 2012).

Key:
[1] = target: T1, Farnesoid X Receptors (FXR) (Mus musculus, UniProt Q60641); conditions: mouse model
T1 sequence (Q60641 1-488): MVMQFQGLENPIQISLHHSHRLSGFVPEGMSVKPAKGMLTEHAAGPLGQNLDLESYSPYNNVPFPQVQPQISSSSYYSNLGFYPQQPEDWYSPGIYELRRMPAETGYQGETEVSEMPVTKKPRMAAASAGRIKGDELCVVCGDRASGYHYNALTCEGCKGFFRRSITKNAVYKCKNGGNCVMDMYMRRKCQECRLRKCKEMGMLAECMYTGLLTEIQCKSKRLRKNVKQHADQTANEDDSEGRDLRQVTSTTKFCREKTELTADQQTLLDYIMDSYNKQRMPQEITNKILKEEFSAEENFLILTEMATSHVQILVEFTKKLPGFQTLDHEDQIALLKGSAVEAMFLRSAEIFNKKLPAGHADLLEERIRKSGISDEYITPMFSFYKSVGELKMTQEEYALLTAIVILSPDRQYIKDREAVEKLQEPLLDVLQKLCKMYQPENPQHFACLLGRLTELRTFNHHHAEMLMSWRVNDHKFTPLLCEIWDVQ

[2] = at high levels

SMILES | activity at Farnesoid X Receptors (FXR) [1] | Lp(a) levels reduced [2]
C[C@@]12CCc3occc3[C@H]1CC[C@@]13C[C@@H](CC[C@H]12)[C@@](O)(CO)C3 [Cafestol] | agonist ligand | 
O=C(O)c1cccnc1 [Naicin] |  | up to 15%
